# Source: US20090176696A1, “Methods And Compositions For Modulating An Immune Response” (priority 2006, published 2009)
# “Also recorded” adds a separate entry of the source.
# Assays:
# [1] = tested on: Bone marrow-derived dendritic cells (BMDCs); experiment: Cytokine production (ELISA) by BMDCs pre-treated with TCT, then stimulated with TLR agonists; format: cell-based, BALB/c mice
# Experimental: Bone marrow-derived dendritic cells (BMDCs) from BALB/c mice were pre-treated with TCT (10 μg/ml) for 1, 6 and 12 hours before being stimulated with a range of concentrations of the TLR2 agonist, Pam-3Csk (10, 100, 1000 ng/ml), the TLR4 agonist, B. pertussis LPS (100, 1000, 10,000 pg/ml) and the TLR9 agonist, CpG (10, 100, 1000 ng/ml) for a further 12 hours. The concentration range chosen for each TLR agonist was based on preliminary experiments. Cytokine and chemokine concentrations were evaluated by ELISA.
# [2] = tested on: KLH-specific T cell and antibody responses; experiment: TCT injection 6 hours before immunisation with KLH or KLH with alum; ex vivo spleen and lymph node responses and antibody titres; format: in vivo, BALB/c mice
# Experimental: Cohorts of BALB/c mice were injected sub-cutaneously (s.c.) into the flank with PBS or TCT alone, and then immunised sub-cutaneously with KLH or KLH with alum 6 hours later. The adaptive immune response was assessed 14 days later by stimulating spleen and local inguinal lymph node cells with antigen ex vivo. Spleen (FIG. 6A) and lymph node (FIG. 6B) cell suspensions were cultured in the presence of various concentrations of KLH (2, 10, 50 μg/ml) and PMA/anti-CD3 or medium were used as positive and negative controls respectively. Supernatants were collected 72 hours later, fresh medium was added to the wells and cells were incubated overnight. At day 4, 2 μCi of ^3H thymidine was added to each well. Plates were incubated for a further 6 hours, and ^3H incorporation was determined.
# In addition, supernatants were tested for IFN-gamma, IL-10, IL-4 and IL-5 by ELISA (spleen—FIG. 7 and lymph nodes—FIG. 8). KLH-specific antibody titres were also determined by ELISA (FIG. 9).
# [3] = tested on: KLH-specific T cell responses; experiment: Footpad immunisation with KLH (PBS, alum or LPS) with or without TCT; popliteal lymph node cytokines; format: in vivo, BALB/c mice
# Experimental: BALB/c mice were injected subcutaneously into the footpad with either PBS alone, KLH (20 μg), KLH adsorbed to alum, KLH+LPS (10 μg) or KLH+TCT (10 or 25 μg), KLH+LPS+TCT or KLH+TCT adsorbed to alum. 5 days later mice were sacrificed and the popiliteal LNs were removed. Single LN cell suspensions were cultured in the presence of increasing concentrations of KLH (2-50 μg/ml) or PMA/CD3 or medium as positive and negative controls respectively. Supernatants were taken 3 days later and tested for IFN-γ, IL-10, IL-4 and IL-5 by ELISA. Results are mean (+/−SD) values for 5 mice per group.
# [4] = tested on: cultured hamster respiratory epithelia; details: B. pertussis TCT; cited from earlier work
# [5] = TCT 10 μg/ml for 1, 6, 12 hours, Pam-3Csk 10, 100, 1000 ng/ml for 12 hours
# [6] = TCT 10 μg/ml pre-treatment (particularly 1 hour), Pam-3Csk, B. pertussis LPS, CpG for 12 hours
# [7] = TCT 6 hours before KLH and alum
# [8] = TCT 6 hours before KLH only or KLH and alum
# [9] = TCT 6 hours before alum adsorbed KLH, day 14
# [10] = TCT 6 hours before immunisation KLH
# [11] = KLH and LPS, co-administration of TCT
# [12] = KLH in alum, TCT 10 or 25 μg/mouse
# [13] = KLH in alum, treatment with TCT
# [14] = co-administration of TCT with KLH in PBS
smiles,measurement,setting,value
"CC(=O)NC1C(OC2C3COC(O3)C(NC(C)=O)C2OC(C)C(=O)NC(C)C(=O)NC(CCC(=O)NC(CCCC(N)C(=O)NC(C)C(=O)O)C(=O)O)C(=O)O)OC(CO)C(O)C1O (stereo not shown) [TCT, N-acetylglucosaminyl-1,6-anhydro-N-acetylmuramylalanyl-γ-glutamyldiaminopimelylalanine]",IL-10 production by B. pertussis LPS,"[1]; LPS 10,000 pg/ml, TCT pre-treatment 1 and 6 hours",significant enhancement
same,IL-10 production in response to the TLR-9 agonist CpG,"[1]; TCT 10 μg/ml for 1, 6, 12 hours, CpG 10, 100, 1000 ng/ml for 12 hours",enhances
same,IL-6 production in response to the TLR-4 agonist B. pertussis LPS,"[1]; TCT 10 μg/ml for 1, 6, 12 hours, LPS 100, 1000, 10000 pg/ml for 12 hours",enhances
same,IL-6 production in response to the TLR-2 agonist Pam-3Csk,[1]; [5],enhances
same,IL-10 production in response to the TLR-2 agonist Pam-3Csk,[1]; [5],enhances
same,IL-6 production by all the TLR agonists examined,[1]; [6],significantly enhanced
same,IL-10 production by all the TLR agonists examined,[1]; [6],significantly enhanced
same,IL-12p40 production induced by LPS,"[1]; TCT 10 μg/ml pre-treatment, B. pertussis LPS",significantly reduced
same,IL-12p40 production induced by Pam-3Csk,"[1]; TCT 10 μg/ml pre-treatment, Pam-3Csk",significantly reduced
same,production of cytokines and chemokines examined,"[1]; TCT alone (10 μg/ml), no TLR agonist",did not induce
same,"IFN-gamma production, spleen cells",[2]; [7],reduced
same,"IL-4 production, spleen cells",[2]; [7],reduced
same,"IL-5 production, spleen cells",[2]; [7],reduced
same,KLH-specific IL-10 production by lymph node cells,[2]; [7],severely impaired; also recorded: attenuated
same,KLH-specific IL-10 production by spleen cells,"[2]; TCT 6 hours before KLH and alum, p<0.001",significant reduction
same,antigen-specific IgG1 titres,[2]; [8],no significant effect
same,antigen-specific IgG2a titres,[2]; [8],no significant effect
same,total KLH-specific IgG production,[2]; [8],no significant effect
same,"proliferation response to KLH, lymph node cells",[2]; [9],reduction
same,"proliferation response to KLH, spleen cells",[2]; [9],reduction
same,"Antigen-specific IL-5 production, lymph node cells",[2]; [10],reduced
same,"antigen-specific IL-4 production, lymph node cells",[2]; [10],reduced
same,"IFN-gamma production, spleen cells",[2]; TCT before immunisation with KLH and PBS,reduced
same,"proliferation response, spleen cells",[2]; mice immunised with KLH and PBS,reduced
same,"antigen-specific IFN-gamma, lymph node cells",[2]; mice immunised with KLH and alum,abrogated
same,IFN-γ production promoted with LPS,[3]; [11],not affected
same,IL-10 production promoted with LPS,[3]; [11],not affected
same,"IL-4 response, draining lymph node cells",[3]; [12],significantly reduced
same,"IL-5 response, draining lymph node cells",[3]; [12],significantly reduced
same,"IFN-γ production, draining lymph node cells",[3]; [13],not significantly affected
same,"IL-10 production, draining lymph node cells",[3]; [13],not significantly affected
same,IFN-γ response,[3]; [14],enhanced
same,IL-10 response,[3]; [14],enhanced
same,ciliostasis and ciliated cell destruction,[4],"causes ciliostasis, ciliated cell destruction"
